Data taken from ChEMBL document CHEMBL5154863, “Design and synthesis of quinolinium-based derivatives targeting FtsZ for antibacterial evaluation and mechanistic study” (Eur J Med Chem, 2022).

Key:
Format in all cases: functional
Settings in all cases: time 20-24 hrs
[1] = system: Staphylococcus aureus; assay: Antibacterial activity against Staphylococcus aureus ATCC 29213 assessed as inhibition of bacterial growth incubated for 20 to 24 hrs by broth micro dilution method
[2] = system: Staphylococcus aureus; assay: Antibacterial activity against methicillin-resistant Staphylococcus aureus ATCC BAA-1720 assessed as inhibition of bacterial growth incubated for 20 to 24 hrs by broth micro dilution method
[3] = system: Staphylococcus epidermidis; assay: Antibacterial activity against Staphylococcus epidermidis ATCC 12228 assessed as inhibition of bacterial growth incubated for 20 to 24 hrs by broth micro dilution method
[4] = system: Enterococcus faecalis; assay: Antibacterial activity against Enterococcus faecalis ATCC 29212 assessed as inhibition of bacterial growth incubated for 20 to 24 hrs by broth micro dilution method
[5] = system: Klebsiella pneumoniae; assay: Antibacterial activity against NDM-1 expressing Klebsiella pneumoniae ATCC BAA 2470 assessed as inhibition of bacterial growth incubated for 20 to 24 hrs by broth micro dilution method
[6] = system: Bacillus subtilis; assay: Antibacterial activity against Bacillus subtilis CMCC (B) 63501 assessed as inhibition of bacterial growth incubated for 20 to 24 hrs by broth micro dilution method
[7] = system: Staphylococcus aureus; assay: Antibacterial activity against vancomycin-intermediate Staphylococcus aureus Mu50 assessed as inhibition of bacterial growth incubated for 20 to 24 hrs by broth micro dilution method
[8] = system: Staphylococcus aureus; assay: Antibacterial activity against methicillin-resistant Staphylococcus aureus ATCC 43300 assessed as inhibition of bacterial growth incubated for 20 to 24 hrs by broth micro dilution method
[9] = system: Enterococcus faecium; assay: Antibacterial activity against Enterococcus faecium ATCC 49624 assessed as inhibition of bacterial growth incubated for 20 to 24 hrs by broth micro dilution method
[10] = system: Staphylococcus aureus; assay: Antibacterial activity against methicillin-resistant Staphylococcus aureus ATCC 33592 assessed as inhibition of bacterial growth incubated for 20 to 24 hrs by broth micro dilution method
[11] = system: Pseudomonas aeruginosa; assay: Antibacterial activity against […] Pseudomonas aeruginosa ATCC 27853 assessed as inhibition of bacterial growth incubated for 20 to 24 hrs by broth micro dilution method
[12] = system: Acinetobacter baumannii; assay: Antibacterial activity against multi-drug resistant Acinetobacter baumannii ATCC 19606 assessed as inhibition of bacterial growth incubated for 20 to 24 hrs by broth micro dilution method
[13] = system: Enterococcus faecium; assay: Antibacterial activity against vancomycin-resistant Enterococcus faecium clinical isolate assessed as inhibition of bacterial growth incubated for 20 to 24 hrs by broth micro dilution method
[14] = system: Escherichia coli; assay: Antibacterial activity against Escherichia coli ATCC 8739 assessed as inhibition of bacterial growth incubated for 20 to 24 hrs by broth micro dilution method
[15] = system: Escherichia coli; assay: Antibacterial activity against Escherichia coli ATCC 25922 assessed as inhibition of bacterial growth incubated for 20 to 24 hrs by broth micro dilution method
[16] = system: Escherichia coli; assay: Antibacterial activity against NDM-1 expressing Escherichia coli ATCC BAA2469 assessed as inhibition of bacterial growth incubated for 20 to 24 hrs by broth micro dilution method
[17] = system: Enterococcus faecium; assay: Antibacterial activity against vancomycin resistant Enterococcus faecium ATCC 700221 assessed as inhibition of bacterial growth incubated for 20 to 24 hrs by broth micro dilution method

Compound	MIC [1] [µg/mL]	MIC [2] [µg/mL]	MIC [3] [µg/mL]	MIC [4] [µg/mL]	MIC [5] [µg/mL]	MIC [6] [µg/mL]	MIC [7] [µg/mL]	MIC [8] [µg/mL]	MIC [9] [µg/mL]	MIC [10] [µg/mL]	MIC [11] [µg/mL]	MIC [12] [µg/mL]	MIC [13] [µg/mL]	MIC [14] [µg/mL]	MIC [15] [µg/mL]	MIC [16] [µg/mL]	MIC [17] [µg/mL]
CN(C)c1ccc(/C=C/c2cc(N3CCOCC3)c3ccccc3[n+]2C)cc1.[I-]	32	64	16	> 64	> 64	32	32	64	8	64	> 64	> 64	32	> 64	> 64	> 64	16
CN(C)c1ccc(/C=C/c2cc(N3CCOCC3)[n+](C)c3ccccc23)cc1.[I-]	32	> 64	16	> 64	> 64	16	32	> 64	8	64	> 64	> 64	> 64	> 64	> 64	> 64	32
CCCNc1cc(/C=C/c2ccc(N(C)C)cc2)[n+](C)c2ccccc12.[I-]	8	4	2	4	> 64	16	8	8	16	4	> 64	> 64	8	> 64	32	> 64	4
CCCCNc1cc(/C=C/c2ccc(N(C)C)cc2)[n+](C)c2ccccc12.[I-]	4	2	2	2	> 64	8	4	4	16	2	> 64	> 64	8	> 64	32	> 64	4
CN(C)c1ccc(/C=C/c2cc(N3CCCC3)c3ccccc3[n+]2C)cc1.[I-]	1	8	1	2	> 64	4	1	2	4	1	> 64	32	4	16	4	64	2
CN(C)c1ccc(/C=C/c2cc(N3CCCCC3)[n+](C)c3ccccc23)cc1.[I-]	2	4	1	16	> 64	4	4	4	8	8	> 64	> 64	8	32	16	64	2
CN(C)c1ccc(/C=C/c2cc(NCCCc3ccccc3)c3ccccc3[n+]2C)cc1.[I-]	2	2	2	8	> 64	4	4	2	4	2	> 64	> 64	4	> 64	> 64	> 64	4
CCCCNc1cc(/C=C/c2ccc(N(C)C)cc2)c2ccccc2[n+]1C.[I-]	32	16	16	32	> 64	8	16	16	16	32	> 64	> 64	8	> 64	> 64	> 64	8
CN(C)c1ccc(/C=C/c2cc(NCCCO)c3ccccc3[n+]2C)cc1.[I-]	32	64	8	16	> 64	> 64	16	64	8	32	> 64	> 64	> 64	> 64	> 64	> 64	16
CN(C)c1ccc(/C=C/c2cc(N3CCCC3)[n+](C)c3ccccc23)cc1.[I-]	4	16	2	64	> 64	16	8	16	16	16	> 64	> 64	16	32	16	64	8
